Test system: clinically isolated S.mutans strains
Test: Bactericidal activity against clinically isolated S. mutans strains (CFU counting)
Type: cell-based, Streptococcus mutans
Details: for bacterial viability (survival): 10 min, CFU
Description: Table S3 The bactericidal activity of pHly -1 NPs and CHX against clinically isolated S.mutans strains a
“a” represents the bacterial viability after the pHly-1 NPs and CHX treatment for 10 min. The killing activity of pHly -1 NPs and CHX was measured against clinically isolated S.mutans strains by counting the CFU of alive bacteria. […]
Minimal inhibition concentration (MIC) determination . S.mutans UA159 (ATCC 700610) and 20 clinical S.mutans strains were used. S.mutans UA159 was purchased from Shanghai Biofeng Biotechnology Co., LTD. These bacteria grown in brain heart infusion broth (BHI, Beijing Land Bridge, China) at 37 °C under anaerobic conditions. […]
Bacterial killing by pHly-1 NPs at various pHs. pHly-1 NPs were diluted in BHI medium of different pHs (pH 4.5, 5.5, 6.8, and 7.0) to obtain specific diluted solutions (final volume of 200 μ L). 1 μ L bacterial suspension (2×10^8 CFU/mL) in the logarithmic phase was added into corresponding diluted solutions and mixed individually. After being incubated for 10 min at 37 °C under anaerobic conditions, aliquots of 20 μL bacterial suspension were plated on BHI agar plates. The bacterial killing activity of pHly -1 NPs was measured by counting the CFU of alive bacteria with agar plating after incubation under anaerobic conditions for 48 h at 37 °C. The results were determined and presented of three repeats. Bacterial survival(%) = CFU of bacteria treated with drugs/CFU of bacteria treated with negative control× 100% 2. […]
For SEM, S. mutans UA159 was treated by the same way to SYTO 9/PI double staining asay and then harvested, washed, and then fixed in 2.5 % glutaraldehyde for 3 h. After dehydration by serial concentrations of ethanol solutions (10%, 25%, 50%, 75%, 95%, and 100%) and lyophiliz ation overnight, the lyophilized samples were coated with goldand then photographed by SEM.

Question: For `[H]/N=C(\N/C(=N/[H])NCCCCCCNC(=N)NC(=N)Nc1ccc(Cl)cc1)Nc1ccc(Cl)cc1` [CHX, chlorhexidine], which viability (55 μM, in 4 strains) is on record?
Answer: over 90%

Question: And the “bacterial viability (survival)” value (strain CS-1, pH 4.5, 22 μM)?
Answer: 95.2%

Question: And the “bacterial viability (survival)” value (strain CS-1, pH 4.5, 55 μM)?
Answer: 54%

Question: And the “bacterial viability (survival)” value (strain CS-1, pH 5.5, 22 μM)?
Answer: 91.6%

Question: What about the “bacterial viability (survival)” value (strain CS-1, pH 5.5, 55 μM) of the same compound?
Answer: 31.3%

Question: And the “bacterial viability (survival)” value (strain CS-2, pH 4.5, 22 μM)?
Answer: 96.4%

Question: What about the “bacterial viability (survival)” value (strain CS-2, pH 4.5, 55 μM) of the same compound?
Answer: 69.1%

Question: And the “bacterial viability (survival)” value (strain CS-2, pH 5.5, 22 μM)?
Answer: 86.9%

Question: And the “bacterial viability (survival)” value (strain CS-2, pH 5.5, 55 μM)?
Answer: 76.6%

Question: What about the “bacterial viability (survival)” value (strain CS-4, pH 4.5, 22 μM) of the same compound?
Answer: 100%

Question: What about the “bacterial viability (survival)” value (strain CS-4, pH 4.5, 55 μM) of the same compound?
Answer: 66.4%

Question: And the “bacterial viability (survival)” value (strain CS-4, pH 5.5, 22 μM)?
Answer: 100%

Question: What about the “bacterial viability (survival)” value (strain CS-4, pH 5.5, 55 μM) of the same compound?
Answer: 74.6%

Question: What about the “bacterial viability (survival)” value (strain CS-5, pH 4.5, 22 μM) of the same compound?
Answer: 100%

Question: What about the “bacterial viability (survival)” value (strain CS-5, pH 4.5, 55 μM) of the same compound?
Answer: 67.7%

Question: What about the “bacterial viability (survival)” value (strain CS-5, pH 5.5, 22 μM) of the same compound?
Answer: 89.6%

Question: And the “bacterial viability (survival)” value (strain CS-5, pH 5.5, 55 μM)?
Answer: 54.9%

Question: What about the “bacterial viability (survival)” value (strain CS-6, pH 4.5, 22 μM) of the same compound?
Answer: 106%

Question: What about the “bacterial viability (survival)” value (strain CS-6, pH 4.5, 55 μM) of the same compound?
Answer: 67.0%

Question: And the “bacterial viability (survival)” value (strain CS-6, pH 5.5, 22 μM)?
Answer: 95.6%

Question: What about the “bacterial viability (survival)” value (strain CS-6, pH 5.5, 55 μM) of the same compound?
Answer: 88.8%

Question: And the “bacterial viability (survival)” value (strain CS-7, pH 4.5, 22 μM)?
Answer: 97.0%

Question: What about the “bacterial viability (survival)” value (strain CS-7, pH 4.5, 55 μM) of the same compound?
Answer: 54%

Question: And the “bacterial viability (survival)” value (strain CS-7, pH 5.5, 22 μM)?
Answer: 91.6%

Question: And the “bacterial viability (survival)” value (strain CS-7, pH 5.5, 55 μM)?
Answer: 67.7%

Question: And the “bacterial viability (survival)” value (strain CS-8, pH 4.5, 22 μM)?
Answer: 79.5%

Question: What about the “bacterial viability (survival)” value (strain CS-8, pH 4.5, 55 μM) of the same compound?
Answer: 49.4%

Question: What about the “bacterial viability (survival)” value (strain CS-8, pH 5.5, 22 μM) of the same compound?
Answer: 81.8%

Question: What about the “bacterial viability (survival)” value (strain CS-8, pH 5.5, 55 μM) of the same compound?
Answer: 61.8%

Question: What about the “bacterial viability (survival)” value (strain CS-9, pH 4.5, 22 μM) of the same compound?
Answer: 83.9%

Question: What about the “bacterial viability (survival)” value (strain CS-9, pH 4.5, 55 μM) of the same compound?
Answer: 77%

Question: What about the “bacterial viability (survival)” value (strain CS-9, pH 5.5, 22 μM) of the same compound?
Answer: 73.8%

Question: What about the “bacterial viability (survival)” value (strain CS-9, pH 5.5, 55 μM) of the same compound?
Answer: 46.9%

Question: And the “bacterial viability (survival)” value (strain CS-10, pH 4.5, 22 μM)?
Answer: 83.6%

Question: What about the “bacterial viability (survival)” value (strain CS-10, pH 4.5, 55 μM) of the same compound?
Answer: 52.3%

Question: What about the “bacterial viability (survival)” value (strain CS-10, pH 5.5, 22 μM) of the same compound?
Answer: 68.9%

Question: And the “bacterial viability (survival)” value (strain CS-10, pH 5.5, 55 μM)?
Answer: 68.2%

Question: What about the “bacterial viability (survival)” value (strain CS-11, pH 4.5, 22 μM) of the same compound?
Answer: 100%

Question: And the “bacterial viability (survival)” value (strain CS-11, pH 4.5, 55 μM)?
Answer: 50.7%

Question: And the “bacterial viability (survival)” value (strain CS-11, pH 5.5, 22 μM)?
Answer: 140%

Question: What about the “bacterial viability (survival)” value (strain CS-11, pH 5.5, 55 μM) of the same compound?
Answer: 59.4%

Question: What about the “bacterial viability (survival)” value (strain CS-12, pH 4.5, 22 μM) of the same compound?
Answer: 98.6%

Question: And the “bacterial viability (survival)” value (strain CS-12, pH 4.5, 55 μM)?
Answer: 91.1%

Question: And the “bacterial viability (survival)” value (strain CS-12, pH 5.5, 22 μM)?
Answer: 110%

Question: And the “bacterial viability (survival)” value (strain CS-12, pH 5.5, 55 μM)?
Answer: 74.2%

Question: And the “bacterial viability (survival)” value (strain CS-13, pH 4.5, 22 μM)?
Answer: 93.5%

Question: And the “bacterial viability (survival)” value (strain CS-13, pH 4.5, 55 μM)?
Answer: 87.4%

Question: And the “bacterial viability (survival)” value (strain CS-13, pH 5.5, 22 μM)?
Answer: 74.0%

Question: What about the “bacterial viability (survival)” value (strain CS-13, pH 5.5, 55 μM) of the same compound?
Answer: 65.8%

Question: What about the “bacterial viability (survival)” value (strain CS-14, pH 4.5, 22 μM) of the same compound?
Answer: 100%

Question: And the “bacterial viability (survival)” value (strain CS-14, pH 4.5, 55 μM)?
Answer: 51.9%

Question: What about the “bacterial viability (survival)” value (strain CS-14, pH 5.5, 22 μM) of the same compound?
Answer: 74.2%

Question: And the “bacterial viability (survival)” value (strain CS-14, pH 5.5, 55 μM)?
Answer: 71.6%

Question: And the “bacterial viability (survival)” value (strain CS-16, pH 4.5, 22 μM)?
Answer: 95.9%

Question: And the “bacterial viability (survival)” value (strain CS-16, pH 4.5, 55 μM)?
Answer: 10.9%

Question: What about the “bacterial viability (survival)” value (strain CS-16, pH 5.5, 22 μM) of the same compound?
Answer: 87.9%

Question: What about the “bacterial viability (survival)” value (strain CS-16, pH 5.5, 55 μM) of the same compound?
Answer: 20%

Question: What about the “bacterial viability (survival)” value (strain CS-17, pH 4.5, 22 μM) of the same compound?
Answer: 108.2%

Question: And the “bacterial viability (survival)” value (strain CS-17, pH 4.5, 55 μM)?
Answer: 92.3%

Question: And the “bacterial viability (survival)” value (strain CS-17, pH 5.5, 22 μM)?
Answer: 102.0%

Question: And the “bacterial viability (survival)” value (strain CS-17, pH 5.5, 55 μM)?
Answer: 48.3%

Question: And the “bacterial viability (survival)” value (strain CS-18, pH 4.5, 22 μM)?
Answer: 68.2%

Question: And the “bacterial viability (survival)” value (strain CS-18, pH 4.5, 55 μM)?
Answer: 71.5%

Question: What about the “bacterial viability (survival)” value (strain CS-18, pH 5.5, 22 μM) of the same compound?
Answer: 114.8%

Question: What about the “bacterial viability (survival)” value (strain CS-18, pH 5.5, 55 μM) of the same compound?
Answer: 92.2%

Question: What about the “bacterial viability (survival)” value (strain CS-19, pH 4.5, 22 μM) of the same compound?
Answer: 93.0%

Question: And the “bacterial viability (survival)” value (strain CS-19, pH 4.5, 55 μM)?
Answer: 101%

Question: And the “bacterial viability (survival)” value (strain CS-19, pH 5.5, 22 μM)?
Answer: 96.9%

Question: And the “bacterial viability (survival)” value (strain CS-19, pH 5.5, 55 μM)?
Answer: 87.9%

Question: What about the “bacterial viability (survival)” value (strain CS-20, pH 4.5, 22 μM) of the same compound?
Answer: 91.0%

Question: What about the “bacterial viability (survival)” value (strain CS-20, pH 4.5, 55 μM) of the same compound?
Answer: 100%

Question: What about the “bacterial viability (survival)” value (strain CS-20, pH 5.5, 22 μM) of the same compound?
Answer: 103.9%

Question: What about the “bacterial viability (survival)” value (strain CS-20, pH 5.5, 55 μM) of the same compound?
Answer: 88.9%

From PMC9254247, “Dual-sensitive antibacterial peptide nanoparticles prevent dental caries” (Theranostics, 2022)
